Source: PMC2703642, “PpoR is a conserved unpaired LuxR solo of Pseudomonas putida which binds N-acyl homoserine lactones” (BMC Microbiology, 2009)

biological target: T1, PpoR (Pseudomonas putida, UniProt Q88E21); experiment: AHL retention in washed E. coli cells expressing PpoR, ethyl acetate extraction, TLC with A. tumefaciens NTL4 (pZLR4) overlay; format: cell-based; conditions: 1 uM AHL in LB, 30 C, IPTG induction 3.5 h; pQE30 vector-only control
T1 construct: gene PP_4647; full-length, 235 aa [sic] (705 bp ORF); 721-bp fragment with entire ppoR cloned SphI-HindIII in pQE30 (pQEPpoR); expressed in E. coli M15(pRep4); not purified
T1 sequence (Q88E21 entry or part of it): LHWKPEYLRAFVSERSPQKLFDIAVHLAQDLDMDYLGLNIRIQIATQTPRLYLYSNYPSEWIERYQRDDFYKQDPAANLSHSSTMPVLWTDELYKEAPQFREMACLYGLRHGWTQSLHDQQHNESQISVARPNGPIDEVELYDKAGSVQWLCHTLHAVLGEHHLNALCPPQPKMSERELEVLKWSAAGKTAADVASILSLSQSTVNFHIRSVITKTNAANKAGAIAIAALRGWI

Question: CCCC(=O)CC(=O)N[C@H]1CCOC1=O [3-oxo-C6-HSL] was tested. Which “AHL retention in washed E. coli cells expressing PpoR, ethyl acetate extraction,” value (“AHL retention” below) did it give?
Answer: Purification of AHLs from E. coli over-expressing PpoR resulted in detection of 3-oxo-C6-HSL

Question: For CCCCCC(=O)CC(=O)N[C@H]1CCOC1=O [3-oxo-C8-HSL], which “AHL retention” value is on record?
Answer: PpoR also exhibited probable binding to 3-oxo-C8-HSL and 3-oxo-C10-HSL, but to a lower extent

Question: Which “AHL retention” value does the source give for CCCCCCCC(=O)CC(=O)N[C@H]1CCOC1=O [3-oxo-C10-HSL] here?
Answer: PpoR also exhibited probable binding to 3-oxo-C8-HSL and 3-oxo-C10-HSL, but to a lower extent
